Experimental data reported in paper PMC12018048, “Intranasal kisspeptin administration rapidly stimulates gonadotropin release in humans” (eBioMedicine, 2025).
Where “and” joins values, the source holds several entries; their conditions need not be identical. Equal entries are not always repeated.

Tested on: serum LH, FSH and testosterone
Assay: Intranasal kisspeptin-54, reproductive hormone profiles in healthy men
Type: in vivo, human
Conditions: N = 12; for AUC of the change in serum LH / AUC of the change in serum testosterone / AUC of the change in serum FSH: 4 h sampling; for AUC of the change in serum LH / AUC of the change in serum testosterone / Max increase from baseline in serum testosterone / Maximum increase from baseline in serum FSH / Maximum increase from baseline in serum LH / AUC of the change in serum FSH: mean ± SEM; for Serum FSH over the sampling period, mean difference vs placebo / Serum LH over the sampling period, mean difference vs placebo: 4 h time profile
Description: This was a randomised, double-blinded, crossover, placebo-controlled clinical study (Fig. 1, Fig. 2, Fig. 3a). Participants were admitted to the Clinical Research Unit (Imperial College Healthcare NHS Trust) and completed five (in healthy men) or two (in healthy women and patients with HA) study visits. […] Study visits in healthy women were conducted in the follicular phase of the menstrual cycle (i.e., days 2–10 inclusive) to control for changes in reproductive hormones over the course of the cycle and were conducted across two different menstrual cycles to allow washout.
All studies commenced at 08:00 to control for circadian hormonal changes. Participants were instructed to abstain from alcohol, caffeine, and sexual activities from 22:00 preceding each study visit. On arrival, an intravenous cannula was inserted into one antecubital fossa, and blood was sampled at timepoints −30, −15, and 0 min, before intranasal administration of kisspeptin-54 or 0.9% saline (placebo). Following participant education (described below), healthy men self-administered the following 5 interventions under supervision in random order via the intranasal route: 3.2, 6.4, 12.8, and 25.6 nmol/kg of kisspeptin-54, or placebo. Healthy women and patients with HA attended for the same protocol comparing 12.8 nmol/kg of kisspeptin-54 and placebo in random order. After administration of kisspeptin-54 or placebo at timepoint 0 min, serum levels of LH, FSH, and testosterone (in men), or oestradiol and progesterone (in women) were measured every 15 min for 4 h. Heart rate, blood pressure, and the presence of adverse symptoms were recorded every 15 min.
Kisspeptin-54 or placebo was self-administered using nasal spray devices that delivered a single volume of 100 μL per actuation (SP270+ pump, 3959 actuator, 5 mL SGD U-Save glass bottles provided by Nemera, La Verpillière, France). The kisspeptin-54 nasal spray solution formulations were prepared by reconstituting kisspeptin-54 powder stored in sterile vials on the morning of each study visit to produce a solution containing the target dose according to body weight in 400 μL.
Participants were familiarised with the procedure of intranasal application and were provided with written administration instructions ahead of each study visit, as described in.[38] In addition, participants received a 5-min training session using a dummy nasal spray device before starting the study to ensure good technique, which all participants easily understood. Under instruction and supervision from the clinical team, participants primed the nasal sprays then self-administered a total of four sprays of kisspeptin-54 or placebo per visit (i.e., 4 × 100 μL), alternating between nostrils and leaving 60 s between sprays, to allow satisfactory dissipation and avoid solution running out of the nostrils. Nasal sprays containing kisspeptin or placebo were identical in appearance, volume, and administration technique.
Blood samples were collected to measure serum reproductive hormone levels at the timepoints depicted in Fig. 1, Fig. 2, Fig. 3a. Serum samples were stored at −20 °C until analysis. Serum LH, FSH, testosterone (in men), and oestradiol and progesterone (in women) were measured using automated chemiluminescent immunoassays (Abbott Diagnostics, Maidenhead, UK: LH catalogue # 2P40-25, FSH catalogue # 7K75-25, testosterone catalogue # 07K7320, oestradiol catalogue # 7K72-25, progesterone catalogue # 7K77-25). Reference ranges: LH in international units per litre (IU/L), 2–12 (men), 2–10 (follicular), 20–60 (mid-cycle), 4–14 (luteal); FSH in IU/L, 1.7–8 (men), 1.5–8.0 (follicular and luteal), 10–50 (mid-cycle); in men: testosterone in nanomoles per litre (nmol/L), 10–30; and in women: oestradiol in picomoles per litre (pmol/L), <300 (early follicular), 400–1500 (mid-cycle), 200–1000 (luteal) and progesterone in nmol/L, <5.0 (follicular), 3.5–67 (luteal). […]

[1] = intranasal 3.2 nmol/kg vs placebo
[2] = intranasal 6.4 nmol/kg vs placebo
[3] = intranasal 6.4 nmol/kg, two-way ANOVA
[4] = intranasal 12.8 nmol/kg vs placebo
[5] = intranasal 12.8 nmol/kg, two-way ANOVA
[6] = intranasal 25.6 nmol/kg vs placebo

## Kisspeptin-54
[1]
  FSH AUC, mean difference vs placebo: 47.2 h·IU/L
  FSH maximum increase, mean difference vs placebo: 0.2 IU/L
  LH AUC, mean difference vs placebo: 197.6 h·IU/L
  LH maximum increase, mean difference vs placebo: 1.1 IU/L
  Testosterone AUC, mean difference vs placebo: 457.4 nmol·h/L
  Testosterone max increase, mean difference vs placebo: 1.5 nmol/L
Intranasal 3.2 nmol/kg
  AUC of the change in serum LH: 172.2 ± 64.2 h·IU/L
  AUC of the change in serum testosterone: 273.6 ± 158.7 nmol·h/L
  Max increase from baseline in serum testosterone: 4.0 ± 1.0 nmol/L
  Maximum increase from baseline in serum FSH: 0.3 ± 0.1 IU/L
  Maximum increase from baseline in serum LH: 2.5 ± 0.3 IU/L
[2]
  FSH AUC, mean difference vs placebo: 97.6 h·IU/L
  FSH maximum increase, mean difference vs placebo: 0.4 IU/L
  LH AUC, mean difference vs placebo: 325.5 h·IU/L
  LH maximum increase, mean difference vs placebo: 1.7 IU/L
  Testosterone AUC, mean difference vs placebo: 329.7 nmol·h/L
  Testosterone max increase, mean difference vs placebo: 0.9 nmol/L
Intranasal 6.4 nmol/kg
  AUC of the change in serum FSH: 37.3 ± 16.2 h·IU/L
  AUC of the change in serum LH: 300.2 ± 79.2 h·IU/L
  AUC of the change in serum testosterone: 145.9 ± 158.5 nmol·h/L
  Max increase from baseline in serum testosterone: 3.4 ± 0.8 nmol/L
  Maximum increase from baseline in serum FSH: 0.4 ± 0.1 IU/L
[3]
  Serum FSH over the sampling period, mean difference vs placebo: 0.4 IU/L
  Serum LH over the sampling period, mean difference vs placebo: 1.3 IU/L
[4]
  FSH AUC, mean difference vs placebo: 156.6 h·IU/L
  FSH maximum increase, mean difference vs placebo: 0.7 IU/L
  LH AUC, mean difference vs placebo: 621.1 h·IU/L
  LH maximum increase, mean difference vs placebo: 3.1 IU/L
  Testosterone AUC, mean difference vs placebo: 654.3 nmol·h/L
  Testosterone max increase, mean difference vs placebo: 2.4 nmol/L
Intranasal 12.8 nmol/kg
  AUC of the change in serum FSH: 96.3 ± 23.2 h·IU/L
  AUC of the change in serum LH: 595.7 ± 98.3 h·IU/L
  AUC of the change in serum testosterone: 470.4 ± 144.0 nmol·h/L
  Time of maximal increase in serum testosterone: 150 min
  Max increase from baseline in serum testosterone: 4.9 ± 0.7 nmol/L
  Maximum increase from baseline in serum FSH: 0.7 ± 0.2 IU/L
  Maximum increase from baseline in serum LH: 4.45 IU/L and 4.4 ± 0.6 IU/L
[5]
  Serum FSH over the sampling period, mean difference vs placebo: 0.6 IU/L
  Serum LH over the sampling period, mean difference vs placebo: 2.5 IU/L
  Serum testosterone, mean difference vs placebo at peak levels from 120 min: 1.91 nmol/L
[6]
  FSH AUC, mean difference vs placebo: 147.6 h·IU/L
  FSH maximum increase, mean difference vs placebo: 0.7 IU/L
  LH AUC, mean difference vs placebo: 574.4 h·IU/L
  LH maximum increase, mean difference vs placebo: 2.9 IU/L
  Testosterone AUC, mean difference vs placebo: 630.3 nmol·h/L
  Testosterone max increase, mean difference vs placebo: 3.1 nmol/L
Intranasal 25.6 nmol/kg
  AUC of the change in serum FSH: 87.3 ± 66.2 h·IU/L
  AUC of the change in serum LH: 549.0 ± 108.6 h·IU/L
  AUC of the change in serum testosterone: 446.5 ± 287.4 nmol·h/L
  Max increase from baseline in serum testosterone: 5.6 ± 1.6 nmol/L
  Maximum increase from baseline in serum FSH: 0.8 ± 0.3 IU/L
  Maximum increase from baseline in serum LH: 4.3 ± 0.6 IU/L
Intranasal 25.6 nmol/kg, two-way ANOVA
  Serum LH over the sampling period, mean difference vs placebo: 2.3 IU/L
Intranasal 3.2-25.6 nmol/kg
  Time of peak stimulation of serum LH after administration: 30 to 45 min
